The source of these data is patent US20130296370A1, “COMPOSITION COMPRISING A PHOTOACTIVATABLE LARVICIDE” (UNIVERSITA DEGLI STUDI DI PADOVA, priority 2010, published 2013).

The subject of series [1] is An. arabiensis. The series is described as follows: Laboratory-scale tray larvicide test. Particulars: sun. The format is in vivo. As to the method: (§1) Laboratory strains of Anopheles stephensi, M and S (Kisumu), chromosomal forms of An. gambiae, An. arabiensis and Aedes aegypti, as well as field-collected Anopheles spp. and Aedes spp. larvae were used. Laboratory mosquitoes were maintained at 28-30° C., >90% RH and a photoperiod of 12 h. Light intensity ranged between 0.5 mW/cm^2 (fluorescent lamp) and 185 mW/cm^2 (sunlight).
(§2) C12 or C14 porphyrin solutions at 5-100 μM concentrations were pre-incubated at room temperature in the darkness with 15-60 mg of carrier (either Eudragit or ground mouse food or cat food) for 4-12 hours under gentle shaking. After incubation the solutions were filtered, and the loaded carrier was dried at room temperature or in an oven (45° C.).
(§3) One litre capacity, transparent plastic trays containing wells with each 500 ml water and 6-60 mg of the composition of the present invention were prepared. Batches of 60-100 L2, L3 or L4 larvae were introduced into the trays after sunset (or artificial light off). Larval mortality was evaluated the next day starting from 8.00 am, and the time required to reach at least 90% mortality was recorded. Larvae not moving or not showing an escaping response at probing were defined as dead or dying, and counted together (Tables 2 and 3). Pupae occasionally formed throughout the irradiation time were discarded and excluded from the evaluation. An equal number of batches of larvae prepared in the same way were kept in continuous darkness and mortality was evaluated similarly, to assess toxicity in the dark.
(§4) Light intensity range: 0.5-185 mW/cm^2.

Series [2] concerns An. gambiae (M). The series is described as follows: Laboratory-scale tray larvicide test. Particulars: sun. The format is in vivo. As for the experimental part: as §1, §2, §3, §4
In series [3] the test system is An. stephensi. The series is described as follows: Laboratory-scale tray larvicide test. Type of series: in vivo. To be noted: carrier mouse food; 6 mg per tray; loading concentration 0.64 μM; fluorescent lamp. As to the method: as §1, §2, §3, §4
The subject of series [4] is Anopheles gambiae Kisumu strain (S). Kind of series: Laboratory-scale tray larvicide test. Type of series: in vivo. To be noted: sun. As to the method:
as §1, §2, §3, §4

Series [5] concerns Anopheles spp + Aedes spp. The series is described as follows: Tray larvicide test on field-collected mosquitoes. Type of series: in vivo. Particulars: carrier Eudragit; 30 mg per tray; loading concentration 50 μM; sunlight. As to the method: as §1, §2, §3
(§5) Each result derives from an independent, representative experiment. Light source: sunlight in all cases, intensity range: 4-185 mW/cm^2

Series [6] deals with Anopheles spp. The series is described as follows: Tray larvicide test on field-collected mosquitoes. Type of series: in vivo. Particulars: sunlight. As to the method:
as §1, §2, §3, §5

The subject of series [7] is Artemia franciscana. Kind of series: Effect of free porphyrin on non-target organisms of aqueous habitats. To be noted: 1 h irradiation, fluorescent lamp. The format is in vivo. As to the method: (§6) The effect of free porphyrin, wherein porphyrin means porphyrin C12, dissolved in water on the photosensitivity of potential aqueous non-target organisms was evaluated on Colpoda inflata, Artemia franciscana and Daphnia magna, a protozoan and two crustacean organisms frequently found in aqueous environments. The mortality data were recorded after 1 h irradiation with visible light emitted by a fluorescent lamp.

Series [8] has as its system Colpoda inflata. The description is as above. Type of series: in vivo. To be noted: 1 h irradiation, fluorescent lamp. As for the experimental part:
as §6

The subject of series [9] is Daphnia magna. The series is described as above. The format is in vivo. Particulars: 1 h irradiation, fluorescent lamp. As to the method:
as §6

A short description of series [10]: C12 photo-bleaching in water. The format is physicochemical. To be noted: free porphyrin in water; 1 hour irradiation, visible light 150 mW/cm^2. As to the method: Moreover, with the aim to determine the level of degradation of the free porphyrin in the water after exposure to sunlight, the rate of C12 photo-bleaching was followed spectrophotometrically by measuring the porphyrin absorption spectrum in the 350-700 nm range upon exposure to visible light at a fluence rate of 150 mW/cm^2. After 1 hour irradiation the porphyrin concentration decreased up to 50%.

Series [11] deals with Tetrahymena thermophila. Particulars: in vivo. As to the method:
(§7) The dark- and photo-toxic activity of free C12 (wherein C12 means porphyrin C12) was tested on representative components of mosquito's breeding sites biota, the results are shown in table 6, as minimal photosensitizing dose (μM). […] Sensitivity to phototreatment (visible light, 10 mW/cm^2) was obviously different, as C. inflate trophozoites and even cysts were highly photosensitive, while Artemia franciscana nauplii appeared to be highly resistant.

For series [12], the system named is Artemia franciscana. Kind of series: Dark- and photo-toxic activity of free C12 on breeding site biota. Type of series: in vivo. To be noted: nauplii; 1 h incubation; visible light 10 mW/cm^2. As to the method: as §7
In series [13] the test system is Chlamydomonas reinhardtii. The description is as above. The format is in vivo. Particulars: vegetative cells; 1 h incubation; visible light 10 mW/cm^2. As for the experimental part:
as §7

The test system of series [14] is Daphnia magna. The description is as above. The format is in vivo. Particulars: young individuals; 1 h incubation; visible light 10 mW/cm^2. As to the method: as §7
For series [15], the system named is Culex sp. Particulars: cited from earlier work.
The mark [16] stands for this setting: carrier Eudragit, 30 mg per tray, loading concentration 50 μM.
Setting [17] is: carrier cat food, 30 mg per tray, loading concentration 50 μM.
Setting [18] is: carrier Eudragit, 15 mg per tray, loading concentration 25 μM.
[19] abbreviates: carrier Eudragit, 30 mg per tray, loading concentration 25 μM.

Regarding `CCCCCCCCCCCC[n+]1ccc(-c2c3nc(c(-c4cc[n+](C)cc4)c4ccc([nH]4)c(-c4cc[n+](C)cc4)c4nc(c(-c5cc[n+](C)cc5)c5ccc2[nH]5)C=C4)C=C3)cc1` [C12, meso-tri(N-methyl-pyridyl), mono(N-dodecyl-pyridyl)porphine], the “Time to reach ≧90% mortality” value in series [1] (carrier Eudragit, 15 mg per tray, loading concentration 5 μM) is 3 h; in [1] (setting [16]) it was 0.5 h; in series [1] (setting [17]) it was 3 h; in [2] (setting [18]), 0.5 h; in [2] (setting [17]), 3 h; in series [3] it was 6 h. Moreover, the “Time to reach ≧90% mortality” value worked out at 0.5 h in series [4] (setting [18]); 0.5 h in series [4] (carrier Eudragit, 15 mg per tray, loading concentration 50 μM); 0.5 h in series [4] (setting [19]); 0.5 h in series [4] (setting [16]); 0.5 h in series [4] (carrier Eudragit, 60 mg per tray, loading concentration 50 μM); 8 h in series [4] (carrier cat food, 30 mg per tray, loading concentration 25 μM). The “Time to reach ≧90% mortality” value worked out at 0.5 h in series [4] (setting [17]); 0.5 h in series [4] (carrier cat food, 30 mg per tray, loading concentration 100 μM); 0.5 h in series [4] (carrier cat food, 60 mg per tray, loading concentration 100 μM); 0.5 h in series [5]; 3 h in series [6] (carrier Eudragit, 15 mg per tray, loading concentration 15 μM); 0.5 h in [6] (setting [19]). In addition, the “Time to reach ≧90% mortality” value in series [6] (setting [17]) is 3 h. In addition, the LD-50 is above 10.0 µM in series [7], above 1.0 µM in series [8] (cysts), 1.0 µM in [8] (trophozoites) and 0.3 µM in [9]. Also, the “Mortality (%)” value in series [7] (porphyrin dose 6.0 μM) is on record as 20%; in series [8] (cysts, porphyrin dose 1.0 μM), 20%; in series [8] (trophozoites, porphyrin dose 0.6 μM), 40%; in [9] (porphyrin dose 0.3 μM) it was 50%. In series [10], the “decrease of porphyrin concentration (photo-bleaching)” value is “up to 50%”. Further, the minimal photosensitizing dose in series [11] was 3.0 µM; in series [12] it was above 10.0 µM; in [13], 0.2 µM; in [14] it was 0.3 µM.

Turning to `CC1=C(CCC(=O)O)c2cc3[nH]c(cc4nc(cc5[nH]c(cc1n2)c(C)c5C(C)O)C(C)=C4C(C)O)c(C)c3CCC(=O)O` (stereo not shown) [hematoporphyrin], in [15] (semi-field, 10^−5 M, after 3 days under natural sunlight), the mortality is listed as 100%.

chlorophyllin: in series [15] (laboratory, added to larval breeding water, after 3 h exposure to light intensity 146.66 W/m^2), the LD50 was 6.88 g/L.

As a reminder, the mortality is the share of the test organisms that died.
